Data on six compounds can be found in patent US20250115571A1, “OXOPIPERAZINE DERIVATIVES” (Inthera Bioscience AG, priority 2017, published 2025).

Assay [1] has as its system HPV-positive head-and-neck squamous cell carcinoma model #HN11303. As to the kind of experiment: Patient-derived xenograft mouse model for head-and-neck squamous cell carcinoma (HN11303). The assay is classed as in vivo. Conditions: for mice tumor-free at the end of the observation period: HN11303 PDX, variable dosages (TABLE 23), all sixteen mice of the two groups; for mean TV: subcutaneous HPV-positive HNSCC model, female NMRI nu/nu mice. Here is the method:
Female NMRI nu/nu mice were injected with cells derived from a human head-and-neck cancer (model #HN11303, an HPV-positive head-and-neck squamous cell carcinoma, EPO-GmbH, Berlin, Germany). The cells were inoculated subcutaneously into the left flank of 40 mice. Thirteen days later tumors reached a mean volume of approximately 107 mm^3, and mice were randomly assigned to five treatment groups of each eight mice (TABLE 23). Body weights were measured twice weekly. Tumor burden was assessed by caliper measurement twice weekly. Dosing breaks were applied when tolerability issues arose (body weight loss>10). The study was terminated five weeks post first dosing. The experiment was performed in the EPO animal testing facility (Experimental Pharmacology and Oncology GmbH, 13125 Berlin-Buch, Germany).

For assay [2], the system named is HPV-positive head-and-neck squamous cell carcinoma model #HN10309. As to the kind of experiment: Patient-derived xenograft mouse model for head-and-neck squamous cell carcinoma (HN10309). In kind it is in vivo. Conditions: p.o. BID, 30 mg/kg, female NMRI nu/nu mice. Here is the method:
Female NMRI nu/nu mice were injected with cells derived from a human head-and-neck cancer (model #HN10309, an HPV-positive head-and-neck squamous cell carcinoma, EPO-GmbH, Berlin, Germany). The cells were inoculated subcutaneously into the left flank of 24 mice. Thirty-three days later tumors reached a mean volume of approximately 116 mm^3, and mice were randomly assigned to three treatment groups of each eight mice (TABLE 21). Body weights were measured twice weekly. Tumor burden was assessed by caliper measurement twice weekly. Dosing breaks were applied when tolerability issues arose (body weight loss>[…]). The study was terminated four weeks post first dosing. The experiment was performed in the EPO animal testing facility (Experimental Pharmacology and Oncology GmbH, 13125 Berlin-Buch, Germany).

For assay [3], the system named is SiHa human HPV16-positive cervical cancer cells. As to the kind of experiment: Cell-derived xenograft mouse model for cervical cancer (SiHa CDX). The assay is classed as in vivo. Conditions: p.o.; for Tumor Size day 37: SiHa CDX, female BALB/c nude mice, Mean ± SEM; for T/C: day 37, tumor-to-control ratio (volume/volume). The protocol: (§1) Female BALB/c nude mice (7-9 weeks of age) were injected with SiHa human HPV16-positive (Human Papillomavirus type 16) cervical cancer cells. The cells were inoculated subcutaneously into the left flank of 48 mice. When tumors reached a mean volume of approximately 111 mm^3, mice were randomly assigned to eight treatment groups of each six mice (TABLE 18). Body weights were measured three times weekly prior to the initiation of dosing and daily thereafter. Tumor burden was assessed by caliper measurement twice weekly. Dosing breaks were applied when tolerability issues arose (body weight loss>10%). The study was terminated four weeks post first dosing. The experiment was performed in the Crown Bioscience Ltd. (Beijing) testing facility (Ground Floor, Light Muller Building, Changping Sector of Zhongguancun Scientific Park, No. 21 Huoju Road, Changping District, Beijing, CHIN).

Assay [4] deals with patient-derived castration-resistant prostate tumor cells (model #PR6511). As to the kind of experiment: Castration resistant prostate cancer patient-derived xenograft (CRPC PDX). In kind it is in vivo, mouse. The protocol: NSG NOD.Cg-PrkdcscidIj2rgtm1Wjl/SzJ mice (6-8 weeks of age) were injected with patient-derived castration-resistant prostate tumor cells (model #PR6511, Crown Bioscience UK Ltd Hillcrest, Osgathorpe Leicestershire, UK). The cells were inoculated subcutaneously into the left flank of 40 male NSG mice. When tumors reached a mean volume of approximately 100 mm^3 (i.e. 100 mm^3+/−54 mm^3, FIG. 3), mice were randomly assigned to five treatment groups of each eight mice (TABLE 9). Body weights were measured three times weekly prior to the initiation of dosing and daily thereafter. Tumor burden was assessed by caliper measurement three times weekly. Dosing breaks were applied when tolerability issues arose (body weight loss>10). Upon completion of the scheduled dosing phase at day 57, tumor outgrowth was monitored for groups 3, 4 and […] up to study day 77. Groups 1 and 2 were terminated on study day 57. Results of the experiment are shown in TABLES 10 and 11; and FIGS. 3 and 4. The experiment was performed in the Crown Bioscience Ltd. testing facility (Crown Bioscience UK Ltd Hillcrest, Dodgeford Lane, Osgathorpe Leicestershire LE12 9TE, UK).
(In general: In xenograft studies the graft and the host belong to different species.)

For assay [5], the system named is MKN45 human gastric adenocarcinoma cells. As to the kind of experiment: Cell-derived xenograft mouse model for gastric cancer (MKN45 CDX). In kind it is in vivo. Conditions: 12 mg/kg, QW, i.v. Here is the method:
as §1, with “(8-9” for “(7-9”, “MKN45” for “SiHa”, “gastric adenocarcinoma” for “HPV16-positive (Human Papillomavirus type 16) cervical cancer”, “103” for “111”, “16).” for “18).”, “CHN).” for “CHIN).”

[6] abbreviates: 1 mg/kg, BID, listed as Compound 248.
Setting [7] is: p.o. QD, 30 mg/kg, groups of eight mice.

For `CC(C)C[C@@H]1NCCN([C@@H](CC(C)C)C(=O)N2CCC3(C[C@@H]2C)OCC(CN2CCCC2)CO3)C1=O` (stereo partly drawn) [Compound 248, (S)-1-[(S)-1-({(S)-8-Methyl-3-[(1-pyrrolidinyl)methyl]-1,5-dioxa-9-aza-9-spiro[5.5]un-decyl}carbonyl)-3-methylbutyl]-3-isobutyl-2-piperazinone], in assay [1], the “mice tumor-free at the end of the observation period” value is listed as “tumor-free”. Further, the “mean TV” value in assay [1] (day 13) was determined as 0.1064 cm^3; in assay [1] (day 15), 0.0958 cm^3; in assay [1] (day 18) it was 0.0916 cm^3; in assay [1] (day 21), 0.0511 cm^3; in assay [1] (day 25), 0.0499 cm^3; in assay [1] (day 29) it was 0.0288 cm^3. Further, the “mean TV” value in assay [1] (day 33) is listed as 0.0068 cm^3; in assay [1] (day 36) it was 0.0041 cm^3; in assay [2] (Day 33), 0.1159 cm^3; in assay [2] (Day 35), 0.1248 cm^3; in assay [2] (Day 38), 0.1389 cm^3; in assay [2] (Day 41), 0.1093 cm^3. Besides, the “mean TV” value worked out at 0.1794 cm^3 in assay [2] (Day 45), 0.2398 cm^3 in assay [2] (Day 49), 0.2964 cm^3 in assay [2] (Day 53) and 0.2569 cm^3 in assay [2] (Day 56). For the same compound, the “Tumor Size day 37” value in assay [3] (setting [6]) was 586 ± 82 mm^3; in assay [3] (3 mg/kg, BID), 178 ± 27 mm^3; in assay [3] (6 mg/kg, QD), 238 ± 37 mm^3. Further, the T/C worked out at 62.6% in assay [3] (setting [6]); 19% in assay [3] (3 mg/kg, BID); 25.4% in assay [3] (6 mg/kg, QD).

`CC(C)C[C@H]1C(=O)N([C@@H](CC(C)C)C(=O)N2CCC3(C[C@@H]2C)OCC(CN2CCCC2)CO3)CCN1C` (stereo partly drawn) [Compound 273, (S)-1-[(S)-1-({(S)-8-Methyl-3-[(1-pyrrolidinyl)methyl]-1,5-dioxa-9-aza-9-spiro[5.5]un-decyl}carbonyl)-3-methylbutyl]-3-isobutyl-4-methyl-2-piperazinone]: the “mice tumor-free at the end of the observation period” value in assay [1] is given as “tumor-free”. Besides, the “mean TV” value is reported as 0.1063 cm^3 in assay [1] (day 13); 0.1073 cm^3 in assay [1] (day 15); 0.0948 cm^3 in assay [1] (day 18); 0.0875 cm^3 in assay [1] (day 21); 0.0451 cm^3 in assay [1] (day 25); 0.0194 cm^3 in assay [1] (day 29). Besides, the “mean TV” value in assay [1] (day 33) amounted to 0.0056 cm^3; in assay [1] (day 36), 0.0031 cm^3. In assay [3] (3 mg/kg, BID), the “Tumor Size day 37” value is given as 942.0 ± 114.9 mm^3. Besides, in assay [3] (3 mg/kg, BID), the T/C came to 79.3%.

With `CC(C)C[C@@H]1NCCN([C@@H](CC(C)C)C(=O)N2CCC(CCN3CCC4(CC3)CC4)CC2)C1=O` [Compound 282, (S)-1-[(S)-1-[(4-{2-(6-Aza-6-spiro[2.5]octyl)eth-yl}-1-piperidyl)carbonyl]-3-methylbutyl]-3-isobutyl-2-piperazinone], the “mean TV” value in assay [1] (day 13) is recorded as 0.1073 cm^3; in assay [1] (day 15) it was 0.1061 cm^3; in assay [1] (day 18), 0.1040 cm^3; in assay [1] (day 21), 0.0971 cm^3; in assay [1] (day 25), 0.1111 cm^3; in assay [1] (day 29), 0.1030 cm^3. The “mean TV” value in assay [1] (day 33) is given as 0.1273 cm^3; in assay [1] (day 36) it was 0.1185 cm^3; in assay [2] (Day 33), 0.1161 cm^3; in assay [2] (Day 35) it was 0.1308 cm^3; in assay [2] (Day 38) it was 0.1751 cm^3; in assay [2] (Day 41), 0.2086 cm^3. Further, the “mean TV” value in assay [2] (Day 45) is reported as 0.3560 cm^3; in assay [2] (Day 49), 0.4920 cm^3; in assay [2] (Day 53) it was 0.6364 cm^3; in assay [2] (Day 56) it was 0.6558 cm^3.

Take `CC(C)C[C@@H]1NCCN([C@@H](CC(C)C)C(=O)N2CCC3(C[C@@H]2C)OCC(CN2CCC2)CO3)C1=O` (stereo partly drawn) [Compound 318, (S)-1-[(S)-1-({(S)-3-[(1-Azetidinyl)methyl]-8-methyl-1,5-dioxa-9-aza-9-spiro[5.5]undecyl}car-bonyl)-3-methylbutyl]-3-isobutyl-2-piperazinone]: in assay [3] (3 mg/kg, BID), the “Tumor Size day 37” value is on record as 351 ± 68 mm^3 and the T/C was determined as 37.5%.

In the case of `CNC(=O)c1ccc(N2C(=S)N(c3ccc(C#N)c(C(F)(F)F)c3)C(=O)C2(C)C)cc1F` [Enzalutamide, enzalutamide, reference compound], the “TWO-WAY ANOVA p (tumor size at the end of the study) vs. Vehicle” value in assay [4] (30 mg/kg p.o. QD, n.s. = not significant) is on record as “n.s”. In addition, in assay [4] (setting [7]), the “CR (complete regression) = number of mice” value was found to be 0, the “PR (partial regression) = number of mice” value is listed as 0 and the “TFS (Tumor Free Survival) = number of complete regressions recorded up to Group Day End” value is 0.

In the case of `CC(=O)O[C@H]1C(=O)[C@@]2(C)[C@H]([C@H](OC(=O)c3ccccc3)[C@]3(O)C[C@H](OC(=O)[C@H](O)[C@@H](NC(=O)c4ccccc4)c4ccccc4)C(C)=C1C3(C)C)[C@]1(OC(C)=O)CO[C@@H]1C[C@@H]2O` [Paclitaxel, paclitaxel, reference compound], in assay [5] (MKN45 CDX, female BALB/c nude mice, Mean ± SEM), the “Tumor Size day 29” value is reported as 554.9 ± 52.8 mm^3. Besides, the T/C in assay [5] (day 29, tumor-to-control ratio (volume/volume)) is given as 46.6%.

As usually defined, the T/C is the ratio of treated to control.
